Here are results for seven molecules from ChEMBL document CHEMBL1156713, “NSAIDs revisited: putative molecular basis of their interactions with peroxisome proliferator-activated gamma receptor (PPARgamma)” (Eur J Med Chem, 2008).

A short description of experiment [1]: Ratio of IC50 for COX1 to IC50 for COX2.
The target of experiment [2] is T1, Peroxisome proliferator-activated receptor gamma (Homo sapiens) (UniProt P37231).
T1 sequence (whole entry): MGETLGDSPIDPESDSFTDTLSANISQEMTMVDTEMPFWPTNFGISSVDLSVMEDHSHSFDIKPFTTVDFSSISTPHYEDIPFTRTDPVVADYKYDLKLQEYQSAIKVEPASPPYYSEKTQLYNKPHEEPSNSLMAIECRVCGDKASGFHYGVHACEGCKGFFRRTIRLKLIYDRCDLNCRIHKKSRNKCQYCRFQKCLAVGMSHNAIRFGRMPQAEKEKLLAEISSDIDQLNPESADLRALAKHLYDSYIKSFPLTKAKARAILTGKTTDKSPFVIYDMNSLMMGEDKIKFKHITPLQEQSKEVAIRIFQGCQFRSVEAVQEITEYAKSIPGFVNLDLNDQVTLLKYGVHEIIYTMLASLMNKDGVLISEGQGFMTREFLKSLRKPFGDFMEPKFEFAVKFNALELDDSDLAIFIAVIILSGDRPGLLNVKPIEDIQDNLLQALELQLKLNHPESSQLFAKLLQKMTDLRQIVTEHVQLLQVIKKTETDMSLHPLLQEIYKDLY
Kind of experiment: Activity at PPARgamma in human Caco-2 cells assessed as luciferase activity at 1000 uM relative to control. The format is cell-based.

In experiment [3] the target is T1, Peroxisome proliferator-activated receptor gamma (Homo sapiens). Kind of experiment: Activity at PPARgamma in human Caco-2 cells assessed as luciferase activity at 50 uM relative to control. It is filed as cell-based.
Experiment [4] has the same target. Put plainly: Activity at PPARgamma in human Caco-2 cells assessed as luciferase activity at 400 uM relative to control. The format is cell-based.
Experiment [5] has the same target. Kind of experiment: Activity at PPARgamma in human Caco-2 cells assessed as luciferase activity at 10000 uM relative to control. It is filed as cell-based.
Experiment [6] has the same target. Kind of experiment: Activity at PPARgamma in human Caco-2 cells assessed as luciferase activity at 100 uM relative to control. The format is cell-based.

SMILES strings stand for the structures.

Take `CSc1ccc(/C=C2/C(C)=C(CC(=O)O)c3cc(F)ccc32)cc1`: the Ratio IC50 in experiment [1] was determined as 0.258.

Consider `CC(C)Cc1ccc(C(C)C(=O)O)cc1` (configuration not stated), for which the fold change (FC) in experiment [2] was found to be 5.81.

Consider `COc1ccc2c(c1)c(CC(=O)O)c(C)n2C(=O)c1ccc(Cl)cc1`, for which, in experiment [3], the fold change (FC) was found to be 6.43.

As for `CC1=C(CC(=O)O)c2cc(F)ccc2/C1=C\c1ccc(S(C)(=O)=O)cc1`, the fold change (FC) in experiment [4] was 3.33.

Regarding `CC(=O)Oc1ccccc1C(=O)O`, the fold change (FC) in experiment [5] was found to be 4.02.

As to `CN1C(C(=O)Nc2ccccn2)=C(O)c2ccccc2S1(=O)=O`, in experiment [2], the fold change (FC) is 1.92.

`CC1=C(CC(=O)O)c2cc(F)ccc2/C1=C\c1ccc([S+](C)[O-])cc1` (configuration not stated): in experiment [6], the fold change (FC) was found to be 2.51.
